{"source": "patent US11219625B2", "about": "“Inhibitors of N-linked glycosylation and methods using same” (YALE UNIVERSITY, priority 2015, dated 2022)", "key": {"[1]": {"test_system": "H1581 cells", "experiment": "MTT proliferation assay, H1581", "assay_type": "cell-based", "details": "H1581, 10 μM NGI-1, 5 d", "method": "FIGS. 4A-4H illustrate the finding that NGI-1 blocks RTK driven proliferation. FIG. 4A illustrates western blot analysis of EGFR phosphorylation (Y1173) and gel mobility in PC9 (EGFR-mutant) and A549 (k-ras mutant) NSCLC cells after 10 μM NGI-1 treatment for 24 h. […] Actin expression was used as a control for protein loading. FIG. 4B illustrates MTT assays results of PC9 following treatment with 10 μM NGI-1 or 1 μM tunicamycin for a total of 5 d. Relative proliferation id reported in fold increase from day 0. FIG. 4C illustrates MTT assays results of A549 following treatment with 10 μM NGI-1 or 1 μM tunicamycin for a total of 5 d. Relative proliferation id reported in fold increase from day 0. FIG. 4D illustrates protein phosphorylation profiles of PC9 cells analyzed by phospho-protein array to assess the response of PC9 to 10 μM NGI-1 for 24 h. FIG. 4E illustrates protein phosphorylation profiles of A549 cells analyzed by phospho-protein array to assess the response of A549 to 10 μM NGI-1 for 24 h. […]\nGrowth rates were determined by CellTiter 96 NonRadioactive Cell Proliferation Assay (Promega; Madison, Wis. USA) according to the manufacturer's directions. […] Cell numbers were estimated after 0, 3, and 5 days by adding MTT [(3-(4,5-Dimethylthiazol-2-yl)-2,5-diphenyltetrazolium bromide] reagent to the wells 4 hours before taking the spectrophotometric reading (absorbance at 570 nm)."}, "[2]": {"test_system": "PC9 cells", "experiment": "Cell cycle distribution by flow cytometry, PC9", "assay_type": "cell-based", "details": "PC9, NGI-1 24 h; control 65%; p<0.01", "method": "FIGS. 5A-5G illustrate NGI-1 induces G1 arrest and senescence in EGFR addicted tumor cells. FIG. 5A illustrates cell cycle distribution of PC9 cells after 24 h NGI-1 treatment for 24 h determined by flow cytometry. […] FIG. 5B illustrates cell cycle distribution of A549 cells after 24 h NGI-1 treatment for 24 h determined by flow cytometry. FIG. 5C illustrates western blot time course of cyclin D1 expression in PC9 and A549 cells after NGI-1 treatment. FIG. 5D illustrates quantitative real-time PCR analysis of PC9 and A549 cells. A time course of cyclin D1 expression levels relative to GAPDH is represented. […] FIG. 5F illustrates senescence of PC9 cells explored by: cell autofluorescence, measured by flow cytometry using a detector for PE/YFP; lipofuscin accumulation, detected by confocal laser scanning microscopy using an excitation laser of 405 nm with acquired signals from spectrums of yellow 575-620 nm; and morphology changes, enlarged vs. flattened. […] Significance was calculated using a T test (*p<0.05. **p<0.01). FIG. 5G illustrates senescence of A549 cells explored by: cell autofluorescence, measured by flow cytometry using a detector for PE/YFP; lipofuscin accumulation, detected by confocal laser scanning microscopy using an excitation laser of 405 nm with acquired signals from spectrums of yellow 575-620 nm; and morphology changes, enlarged vs. flattened. […]"}}, "data": [{"molecule": "Cc1cnc(NC(=O)c2cc(S(=O)(=O)N(C)C)ccc2N2CCCC2)s1", "note": "[NGI-1, 5-(N,N-Dimethylsulfamoyl)-N-(5-methylthiazol-2-yl)-2-(pyrrolidin-1-yl)benzamide]", "values": [{"measurement": "effect on proliferation, MTT", "setting": "[1]", "result": "blocked proliferation of the H1581 cell line"}, {"measurement": "cells in G1", "setting": "[2]", "result": 90, "unit": "%"}]}]}
